Where two headings read alike, the source gives them in different places.
Assays:
[1] = system: Saccharomyces cerevisiae BY4743; experiment: 24 hour survival (CFU) at low and high cell density; assay type: cell-based
Method: Saccharomyces cerevisiae BY4743 (ATCC 201390) was plated from a freezer vial onto YPD agar (Teknova, Hollister, Calif.; Cat. #Y1000) and incubated overnight at 30° C. Cells from the YPD plate were inoculated into a 25 ml pre-culture of YPD broth (Teknova; Cat. #Y5000) with an initial OD600 of 0.06 to 0.08. The pre-culture was grown for 7 hours in an aerobic shaker at 30° C. An aliquot of the pre-culture was inoculated into 200 ml of YPD broth, with an initial OD600 of 0.06 to 0.08, and this culture was incubated with aeration at 30° C. for approximately 17 hours. The optical density of the culture was measured, the culture was centrifuged and the cells were resuspended to yield an OD600 of 5 in fresh YPD broth. This is referred to as a high cell density (HCD) culture. […] This is referred to as a low the cell density (LCD) culture. These cultures were incubated at 30° C. with shaking for 30 minutes for an acclimation period. At the end of the 30 minute acclimation period, the OD600 was measured. 5 ml of low or high cell density culture was dispensed to 15 ml conical tubes which contained different concentrations of the alcohol to be tested. A control tube included no alcohol. The tubes were placed in a rotary drum at 30° C. and incubated for 24 hours. The time of addition of cells was referred to as “time 0”. […] Colony forming units (CFUs) were determined on YPD plates at time 0 for the control and at 24 hours for each of the cultures, including the control culture, using standard microbiological methods. […] Colonies were counted after 48 hours, and CFUs/ml were calculated. At time 0, the low cell density cultures had about 4.8×10^5 CFUs/ml, and the high cell density cultures had about 5.4×10^7 CFUs/ml.

[2] = system: Yeast cultures; conditions: 1% butanol
Method: Survival was measured by assaying the number of colony forming units (CFU), which is a measure of live cells.

[3] = 2.0% (w/v) alcohol, high cell density
[4] = 2.0% (w/v) alcohol, low cell density

For CCCCO [1-Butanol, 1-butanol], the “Percent Survival HCD (%)” value ([1]; 1.0% (w/v) alcohol, high cell density OD600 5) was 72.2%, the “Percent Survival LCD (%)” value ([1]; 1.0% (w/v) alcohol, low cell density OD600 0.05) was 1.3% and the “Percent Survival HCD (%)” value ([1]; 1.5% (w/v) alcohol, high cell density) was 57.3%. The “Percent Survival LCD (%)” value ([1]; 1.5% (w/v) alcohol, low cell density) was 0.4%, the “Percent Survival HCD (%)” value [1, 3] was 3.6% and the “Percent Survival LCD (%)” value [1, 4] was 0.1%.

CCO [Ethanol, ethanol] was tested, and the “Percent Survival HCD (%)” value [1, 3] was 62.5%, the “Percent Survival LCD (%)” value [1, 4] was 100.0% and the “Percent Survival HCD (%)” value ([1]; 4% (w/v) alcohol, high cell density) was 50.2%. The “Percent Survival LCD (%)” value ([1]; 4% (w/v) alcohol, low cell density) was 100.0%, the “Percent Survival HCD (%)” value ([1]; 5% (w/v) alcohol, high cell density) was 38.9% and the “Percent Survival LCD (%)” value ([1]; 5% (w/v) alcohol, low cell density) was 25.3%.

butanol was tested, and the “survival rate compared to control culture without butanol” value ([2]; high cell density cultures) was “at least 40%” and the “survival rate compared to control culture without butanol” value ([2]; low cell density cultures (100-fold fewer cells)) was “up to 13%”.

In the case of CCC(C)O (centres unmarked) [2-Butanol, 2-butanol], the “Percent Survival HCD (%)” value [1, 3] is reported as 27.6%, the “Percent Survival LCD (%)” value [1, 4] is reported as 0.3% and the “Percent Survival HCD (%)” value ([1]; 3% (w/v) alcohol, high cell density) is reported as 18.9%. The “Percent Survival LCD (%)” value ([1]; 3% (w/v) alcohol, low cell density) was 0.1%, the “Percent Survival HCD (%)” value ([1]; 3.5% (w/v) alcohol, high cell density) was under 0.001% and the “Percent Survival LCD (%)” value ([1]; 3.5% (w/v) alcohol, low cell density) was under 0.001%.

From patent US20120149080A1, “YEAST PRODUCTION CULTURE FOR THE PRODUCTION OF BUTANOL” (Butamax(TM) Advanced Biofuels LLC, priority 2010, published 2012)
